Here are results for 13 compounds from ChEMBL document CHEMBL5724914, “Linking interpersonal differences in gut microbiota composition and drug biotransformation activity” (2024).

Where a SMILES comes first, the peptide text is derived from it. [ ]: non-standard residue; d: D form. pGlu = O=C1CC[C@@H](C(=O)O)N1; Thz = O=C(O)[C@@H]1CSCN1

The nature of data set [1]: The drug is tested on Z-009 corresponding to pig gut metagenome with ENA study accession number: PRJEB37062 and ENA sample accession number: ERS12561809 for biotransformation under anaerobic condition. The drug concentrations were measured over 9 timepoints collected between 0 and 24 hours of incubation by liquid-chromatography-coupled mass spectrometry (LC–MS). To be noted: 2 µM.

Data set [2] is described as follows: The drug is tested on Z-003 corresponding to pig gut metagenome with ENA study accession number: PRJEB37062 and ENA sample accession number: ERS12561803 for biotransformation under anaerobic condition. The drug concentrations were measured over 9 timepoints collected between 0 and 24 hours of incubation by liquid-chromatography-coupled mass spectrometry (LC–MS). The note with it: 2 µM.

Data set [3] can be described thus: The drug is tested on Z-002 corresponding to rabbit gut metagenome with ENA study accession number: PRJEB37062 and ENA sample accession number: ERS12561802 for biotransformation under anaerobic condition. The drug concentrations were measured over 9 timepoints collected between 0 and 24 hours of incubation by liquid-chromatography-coupled mass spectrometry (LC–MS). The note with it: 2 µM.

A short description of data set [4]: The drug is tested on WLS-370 corresponding to human gut metagenome with ENA study accession number: PRJEB37062 and ENA sample accession number: ERS12561793 for biotransformation under anaerobic condition. The drug concentrations were measured over 9 timepoints collected between 0 and 24 hours of incubation by liquid-chromatography-coupled mass spectrometry (LC–MS). The note with it: 2 µM.

Data set [5] can be described thus: The drug is tested on WLS-073 corresponding to human gut metagenome with ENA study accession number: PRJEB37062 and ENA sample accession number: ERS12561749 for biotransformation under anaerobic condition. The drug concentrations were measured over 9 timepoints collected between 0 and 24 hours of incubation by liquid-chromatography-coupled mass spectrometry (LC–MS). The note with it: 2 µM.

A short description of data set [6]: The drug is tested on WLS-038 corresponding to human gut metagenome with ENA study accession number: PRJEB37062 and ENA sample accession number: ERS12561745 for biotransformation under anaerobic condition. The drug concentrations were measured over 9 timepoints collected between 0 and 24 hours of incubation by liquid-chromatography-coupled mass spectrometry (LC–MS). To be noted: 2 µM.

The conditions of data set [7]: human gut metagenome, 24 h, 2 µM.
For data set [8] the following is noted: human gut metagenome, 24 h, 2 µM. This is another data set of the same source.
The conditions of data set [9]: human gut metagenome, 24 h, 2 µM. The source holds these as a separate data set.
Further: call rule not given here.

Regarding `CCCc1nc2c(C)cc(-c3nc4ccccc4n3C)cc2n1Cc1ccc(-c2ccccc2C(=O)O)cc1`, the “Bacterial Biotransformation” value in [1], in [2], in [3], in data set [4], in data set [5] and in data set [6] was “Compound metabolized” each time. In addition, the “Bacterial Biotransformation” value in data set [7], in data set [8] and in [9] was “Compound metabolized” in each case.
Take `CCCCC(=O)N(Cc1ccc(-c2ccccc2-c2nnn[nH]2)cc1)[C@H](C(=O)O)C(C)C`: the “Bacterial Biotransformation” value in data set [1] is given as “Compound NOT metabolized”; in data set [2], “Compound NOT metabolized”; in data set [3] it was “Compound NOT metabolized”; in data set [4], “Compound metabolized”; in [5] it was “Compound NOT metabolized”; in data set [6], “Compound metabolized”. The “Bacterial Biotransformation” value in [7], in data set [8] and in [9] was “Compound metabolized” throughout.
Regarding `Cc1cc2c(cc1S(N)(=O)=O)S(=O)(=O)CCC2`, the “Bacterial Biotransformation” value in data set [1], in data set [2], in [3], in data set [4], in data set [5] and in [6] was “Compound NOT metabolized” each time. Further, the “Bacterial Biotransformation” value in data set [7], in data set [8] and in data set [9] was “Compound NOT metabolized” in each case.
`CCC(COC(=O)c1cc(OC)c(OC)c(OC)c1)(c1ccccc1)N(C)C.O=C(O)/C=C\C(=O)O` (stereo not given): the “Bacterial Biotransformation” value is “Compound metabolized” in data set [1]; “Compound NOT metabolized” in data set [2]; “Compound NOT metabolized” in data set [3]; “Compound NOT metabolized” in data set [4]; “Compound NOT metabolized” in data set [5]; “Compound NOT metabolized” in [6]. Further, the “Bacterial Biotransformation” value in data set [7] is “Compound metabolized”; in data set [8] it was “Compound metabolized”; in data set [9], “Compound NOT metabolized”.
For `COc1ccc(CCN(C)CCCC(C#N)(c2ccc(OC)c(OC)c2)C(C)C)cc1OC` (stereo not given), the “Bacterial Biotransformation” value is given as “Compound metabolized” in data set [1]; “Compound metabolized” in [2]; “Compound metabolized” in data set [3]; “Compound metabolized” in [4]; “Compound metabolized” in data set [5]; “Compound NOT metabolized” in data set [6]. For the same compound, the “Bacterial Biotransformation” value is listed as “Compound metabolized” in data set [7], “Compound metabolized” in data set [8] and “Compound NOT metabolized” in data set [9].
In the case of `CN1CC(=O)N2[C@H](c3ccc4c(c3)OCO4)c3[nH]c4ccccc4c3C[C@@H]2C1=O`, the “Bacterial Biotransformation” value in [1] is “Compound metabolized”; in [2], “Compound metabolized”; in data set [3], “Compound metabolized”; in [4] it was “Compound metabolized”; in [5], “Compound NOT metabolized”; in [6], “Compound metabolized”. For the same compound, the “Bacterial Biotransformation” value in data set [7], in data set [8] and in [9] was “Compound metabolized” throughout.
With `CC(O)(CS(=O)(=O)c1ccc(F)cc1)C(=O)Nc1ccc(C#N)c(C(F)(F)F)c1` (stereo not given) [BICALUTAMIDE], the “Bacterial Biotransformation” value in data set [1], in data set [2], in data set [3], in data set [4], in [6] and in data set [7] was “Compound NOT metabolized” each time. Further, the “Bacterial Biotransformation” value in [8] and in data set [9] was “Compound NOT metabolized” each time.
For the compound `CCCCCCOC(=O)/N=C(/N)c1ccc(NCc2nc3cc(C(=O)N(CCC(=O)OCC)c4ccccn4)ccc3n2C)cc1.CS(=O)(=O)O` [DABIGATRAN ETEXILATE MESYLATE], the “Bacterial Biotransformation” value in data set [1], in data set [2], in data set [3], in [4] and in data set [7] was “Compound NOT metabolized” throughout.
In the case of `C[C@@H]1C[C@H]2[C@@H]3CCC4=CC(=O)C=C[C@]4(C)[C@@]3(F)[C@@H](O)C[C@]2(C)[C@@]1(O)C(=O)CO` [DEXAMETHASONE], the “Bacterial Biotransformation” value in [2] was “Compound metabolized”; in data set [3], “Compound metabolized”; in data set [5], “Compound NOT metabolized”; in [6], “Compound NOT metabolized”; in data set [7], “Compound NOT metabolized”; in data set [8] it was “Compound NOT metabolized”. The “Bacterial Biotransformation” value in data set [9] was “Compound NOT metabolized”.
In the case of `O=c1[nH]c2ccccc2n1CCCN1CCC(n2c(=O)[nH]c3cc(Cl)ccc32)CC1` [DOMPERIDONE], the “Bacterial Biotransformation” value in [1], in data set [2], in [3], in data set [4], in data set [5] and in [6] was “Compound NOT metabolized” each time. Besides, the “Bacterial Biotransformation” value in [8] and in [9] was “Compound NOT metabolized” throughout.
In the case of `c1ccc([C@H]2CN3CCSC3=N2)cc1` [LEVAMISOLE], the “Bacterial Biotransformation” value in data set [3], in data set [4], in data set [6], in data set [7], in data set [8] and in data set [9] was “Compound metabolized” throughout.
For the compound `C#C[C@]1(O)CC[C@H]2[C@@H]3CCC4=CC(=O)CC[C@@H]4[C@H]3CC[C@@]21CC` [LEVONORGESTREL], the “Bacterial Biotransformation” value in [3] is “Compound metabolized”; in data set [4], “Compound metabolized”; in data set [5], “Compound NOT metabolized”; in data set [7], “Compound NOT metabolized”; in data set [8], “Compound metabolized”.
As for `O=C1CC[C@@H](C(=O)N2CSC[C@H]2C(=O)O)N1` [PIDOTIMOD] ([pGlu]-[Thz]-OH), the “Bacterial Biotransformation” value in data set [2] is on record as “Compound NOT metabolized”; in data set [3] it was “Compound NOT metabolized”; in data set [4], “Compound NOT metabolized”; in [5], “Compound NOT metabolized”; in data set [6] it was “Compound metabolized”; in data set [7], “Compound NOT metabolized”. In addition, the “Bacterial Biotransformation” value in [9] is given as “Compound NOT metabolized”.
